From US10253071B2, “Selectin inhibitors, composition, and uses related thereto” (Beth Israel Deaconess Medical Center, Inc., priority 2014, dated 2019)
Square brackets hold non-standard residues; d marks the D form. Peptide text beside a SMILES is read from it. * marks the point of attachment. X1 = CC(=O)N[C@@H]1[C@@H](O[C@@H]2O[C@H](CO)[C@H](O)[C@H](O)[C@H]2O)[C@@H](O)[C@@H](CO[C@@H]2O[C@H](CO)[C@@H](O[C@@H]3O[C@H](CO)[C@H](O)[C@H](O[C@]4(C(=O)O)C[C@H](O)[C@@H](NC(C)=O)[C@H]([C@H](O)[C@H](O)CO)O4)[C@H]3O)[C@H](O[C@@H]3O[C@@H](C)[C@@H](O)[C@@H](O)[C@@H]3O)[C@H]2NC(C)=O)O[C@@H]1*; Phe(4-CH2SO3H) = N[C@@H](Cc1ccc(CS(=O)(=O)O)cc1)C(=O)O; Mca = COc1ccc2c(CC(=O)*)cc(=O)oc2c1

Legend:
L-selectin (L-sel-Ig) = target: T1, L-selectin (L-sel-Ig) (Homo sapiens, UniProt P14151); test: Biacore binding assay, L-selectin; conditions: compared with P-selectin
T1 sequence (P14151 39-372): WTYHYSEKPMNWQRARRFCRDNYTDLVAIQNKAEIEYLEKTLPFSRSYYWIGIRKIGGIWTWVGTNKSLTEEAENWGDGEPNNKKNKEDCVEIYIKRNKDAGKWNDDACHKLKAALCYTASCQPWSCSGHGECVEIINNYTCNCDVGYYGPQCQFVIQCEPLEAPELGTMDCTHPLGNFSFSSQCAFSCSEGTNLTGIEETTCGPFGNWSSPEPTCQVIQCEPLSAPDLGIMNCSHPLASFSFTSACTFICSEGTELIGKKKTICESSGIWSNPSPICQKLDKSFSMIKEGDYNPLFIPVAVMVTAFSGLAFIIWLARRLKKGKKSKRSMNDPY
Description: (§1) Dissociation constants (Kd) were determined using a Biacore binding assay after initial capture of biotinylated GS(n)P-6 onto streptavidin-coated sensor chips followed by flow through of P-, L- or E-sel-Ig (2.5 to 60 μg/mL). […] The Kd of GSnP-6 to murine P-selectin was ˜9-fold lower than to human P-selectin.

[1] = Chemical stability at low pH and at high temperature (RP-HPLC); format: physicochemical; conditions: sodium acetate/acetic acid buffer pH 5, 37° C.; and 2 mM phosphate buffer pH 7.5, 60° C.
Description: (§2) Bound peptides were detected using Alexa-488 labeled anti-human IgG antibody (5 μg/mL). Three lectins RCA-1, AAL, and PNA were used to confirm the sequence of enzymatic steps. Monoclonal antibodies CHO131, PSG2 antibody and PL-1 were used to confirm the presence of SLex, tyrosine sulfates, and the peptide sequence, respectively. Biacore binding analysis to human P-selectin with observed rate constants for (D) GSnP-6, kon 3.1×10^5 M^−1s^−1, koff 6.9×10^3 M^−1s^−; GSn2P-6, kon6.4×10^5 M^−1s^−1, koff 6.8×10^3 M^−1s. Biacore binding analysis to mouse P-selectin with observed rate constants for (E) GsnP-6, kon 4.9×10^4 M^−1s^−1, koff 8.0×10^3 M^−1s^−; GSn2P-6 kon 5.3×10^4 M^−1s^−1, koff 9.0×10^3 M^−1s. (F) Temperature- and pH-dependent stability studies of GSnP-6.
The chemical stability of GSnP-6 was evaluated under low pH conditions by incubating the compound in sodium acetate/acetic acid buffer at pH 5, 37° C., as well as under high temperature conditions by incubation in 2 mM phosphate buffer at pH 7.5, 60° C. (FIG. 3E).

[2] = target: T2, Recombinant mouse L-selectin Fc chimera (Mus musculus, UniProt P18337); test: Flow cytometry, inhibition of mouse L-selectin Fc chimera binding to murine neutrophils; format: cell-based; conditions: chimera 2 μg/mL, read-out: IC50, PSGL-1/L-selectin interactions, murine neutrophils
T2 sequence (P18337 39-372): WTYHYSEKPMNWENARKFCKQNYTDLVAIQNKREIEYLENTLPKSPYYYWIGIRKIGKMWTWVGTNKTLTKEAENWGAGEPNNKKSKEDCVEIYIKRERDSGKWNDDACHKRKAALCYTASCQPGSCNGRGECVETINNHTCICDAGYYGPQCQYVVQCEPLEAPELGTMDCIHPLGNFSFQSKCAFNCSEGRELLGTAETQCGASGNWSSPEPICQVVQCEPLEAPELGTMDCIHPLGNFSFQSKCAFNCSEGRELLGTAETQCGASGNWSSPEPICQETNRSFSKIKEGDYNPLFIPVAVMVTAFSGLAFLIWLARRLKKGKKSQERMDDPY
Description: Flow cytometry was used to characterize the ability of GSnP-6 to block binding of selectin-IgG chimeras to murine and human leukocytes. Recombinant mouse P- or L-selectin Fc chimera (2 μg/mL) was incubated with murine neutrophils and GSnP-6 (0-30 μM). Likewise, recombinant human P-selectin or L-selectin Fc chimera were incubated with human peripheral blood neutrophils and monocytes, as well as the human U937 cell line in the presence of GSnP-6 (0-30 μM). Binding of selectin-IgG chimeras was detected with PE-conjugated anti-IgG antibody, quantified as mean fluorescent intensity, and plotted as percent inhibition. Specificity was confirmed with selectin-specific blocking antibodies.

[3] = tested on: leukocyte binding to microvascular endothelium; test: Intravital microscopy of murine cremaster muscle microcirculation, leukocyte rolling; format: in vivo; conditions: mouse cremaster venules 30 to 40 μm, 4 μmol/kg IV, saline 40.8±1.7, p≤0.01
Description: Intravital microscopy was used to determine the ability of GsnP-6 to inhibit leukocyte binding to microvascular endothelium. PSGL-1 expressed on circulating leukocytes binds to selectins on endothelium; inducing leukocyte rolling to facilitate subsequent tight binding to integrin receptors. Inhibition of this interaction leads to an increase in rolling velocity. Intravital microscopy of the murine cremaster muscle microcirculation was performed on venules with a diameter of 30 to 40 μm. Seven venules per mouse (n=4, saline (control); n=3, GSnP-6, 4 μmol/kg IV) were analyzed and the velocities of 5 to 10 rolling leukocytes were determined in each venule by individually tracking leukocyte distance/time (μm/s). A significant increase in mean rolling velocity was observed after intravenous administration of GSnP-6 (FIG. GsnP-6: 74.9±3.4 μm/s, saline: 40.8±1.7 μm/s; p≤0.01).

mouse P-selectin = target: T3, mouse P-selectin (Mus musculus, UniProt Q01102); test: Biacore binding assay, mouse P-selectin
T3 sequence (Q01102 42-768): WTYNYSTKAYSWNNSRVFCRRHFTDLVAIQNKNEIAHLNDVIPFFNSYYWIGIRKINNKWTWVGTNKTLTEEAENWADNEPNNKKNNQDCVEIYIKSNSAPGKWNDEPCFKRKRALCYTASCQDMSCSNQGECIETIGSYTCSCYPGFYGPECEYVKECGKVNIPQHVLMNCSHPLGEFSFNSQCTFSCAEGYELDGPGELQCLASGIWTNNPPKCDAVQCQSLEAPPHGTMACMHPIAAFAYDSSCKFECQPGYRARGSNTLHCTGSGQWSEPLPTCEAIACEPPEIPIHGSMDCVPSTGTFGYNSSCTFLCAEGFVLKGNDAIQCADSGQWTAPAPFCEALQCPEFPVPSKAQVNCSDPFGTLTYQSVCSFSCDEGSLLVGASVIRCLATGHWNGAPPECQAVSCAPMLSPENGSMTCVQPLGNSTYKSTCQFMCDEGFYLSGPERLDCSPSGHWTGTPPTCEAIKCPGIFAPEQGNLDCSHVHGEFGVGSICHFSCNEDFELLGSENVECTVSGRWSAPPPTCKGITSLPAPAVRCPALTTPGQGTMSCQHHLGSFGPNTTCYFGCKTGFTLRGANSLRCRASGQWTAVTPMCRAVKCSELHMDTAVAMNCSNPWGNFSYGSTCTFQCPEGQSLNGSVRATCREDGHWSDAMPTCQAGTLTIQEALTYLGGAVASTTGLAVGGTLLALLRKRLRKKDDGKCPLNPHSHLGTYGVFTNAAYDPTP
Description: as §2, §1

Structure (SMILES): COc1ccc2c(CC(=O)NCCCC[C@H](N)C(=O)N[C@@H](CCC(=O)O)C(=O)N[C@@H](Cc3ccc(CS(=O)(=O)O)cc3)C(=O)N[C@@H](CCC(=O)O)C(=O)N[C@@H](Cc3ccc(CS(=O)(=O)O)cc3)C(=O)N[C@@H](CC(C)C)C(=O)N[C@@H](CC(=O)O)C(=O)N[C@@H](Cc3ccc(CS(=O)(=O)O)cc3)C(=O)N[C@@H](CC(=O)O)C(=O)N[C@@H](Cc3ccccc3)C(=O)N[C@@H](CC(C)C)C(=O)N3CCC[C@H]3C(=O)N[C@@H](CCC(=O)O)C(=O)N[C@H](C(=O)N[C@@H](CCC(=O)O)C(=O)N3CCC[C@H]3C(=O)N[C@@H](CC(C)C)C(=O)O)[C@@H](C)O[C@H]3O[C@H](CO[C@@H]4O[C@H](CO)[C@@H](O[C@@H]5O[C@H](CO)[C@H](O)[C@H](O[C@]6(C(=O)O)C[C@H](O)[C@@H](NC(C)=O)[C@H]([C@H](O)[C@H](O)CO)O6)[C@H]5O)[C@H](O[C@@H]5O[C@@H](C)[C@@H](O)[C@@H](O)[C@@H]5O)[C@H]4NC(C)=O)[C@H](O)[C@H](O[C@@H]4O[C@H](CO)[C@H](O)[C@H](O)[C@H]4O)[C@H]3NC(C)=O)cc(=O)oc2c1 [GSnP-6] (H-K(Mca)E[Phe(4-CH2SO3H)]E[Phe(4-CH2SO3H)]LD[Phe(4-CH2SO3H)]DFLPET(X1)EPL-OH)
- apparent affinity to L-selectin (L-selectin (L-sel-Ig)): even lower apparent affinity
- chemical stability (degraded products by RP-HPLC) [1]: degraded products were not detected
- IC50 [2]: > 50 µM
- mean leukocyte rolling velocity [3]: increased leukocyte rolling velocity
- mean leukocyte rolling velocity ([3]; listed as GsnP-6): 74.9±3.4 μm/s
- Kd to murine P-selectin relative to human P-selectin (mouse P-selectin; printed as fold lower than to human P-selectin): ~9 fold
- koff (mouse P-selectin; read-out: koff, mouse P-selectin): 0.008 s⁻¹
- kon (mouse P-selectin; read-out: kon, mouse P-selectin): 49000 M⁻¹ s⁻¹
